Like-named read-outs stand apart in the source and are kept apart here. Some results are limits rather than exact numbers.

46 molecules from US20160002247A1, “8-SUBSTITUTED IMIDAZOPYRIMIDINONE DERIVATIVE HAVING AUTOTAXIN INHIBITORY ACTIVITY” (THE UNIVERSITY OF TOKYO, priority 2013, published 2016) can be followed below.

For this assay, the target named is T1, Human autotaxin enzyme (Homo sapiens, UniProt Q13822).
T1 construct: purchased R&D System
The assay can be described thus: Evaluation of autotaxin inhibitor, Method C (Test Example 3): 18:0 Lyso PC, choline assay, Resorufin fluorescence. Type of assay: biochemical. As to conditions: human autotaxin, 18:0 Lyso PC substrate. An outline of the steps:
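Choline-coupled fluorescence readout (20 min, resorufin at 531/598 nm) followed a 2 h room-temperature reaction of human autotaxin with 18:0 Lyso PC substrate (added as 200 μM solution) in pH 7.5 Tris buffer containing MgCl2 and Triton X-100. Percent inhibition scaled to no-compound (0%) and no-enzyme (100%) wells and plotted versus concentration.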

Where [1] appears, read: Assay Method C (Test Example 3), read-out: Inhibitory Activity (autotaxin enzyme inhibitory activity, IC50 class).
Setting [2] is: Assay Method C, read-out: Inhibitory Activity.

For the molecule `CCn1c(N2C[C@H](O)C[C@H]2C(=O)NCC(=O)O)cc(=O)n2cc(-c3ccc(Cl)cc3)nc12` [Compound 762], the IC50 under setting [1] was greater than 1000 nM.

On to `CCCCCn1c(OCC2CCN(C(=O)OC(C)(C)C)C2)cc(=O)n2cc(-c3ccc(Cl)cc3)nc12` (stereo not shown) [Compound 553], for which the IC50 under setting [1] fell in the range of 100 to 1000 nM.

Consider `CCCCCn1c(N2CCNC(C(=O)NCCC(=O)O)C2)cc(=O)n2cc(-c3ccc(Cl)cc3)nc12` (stereo not shown) [Compound 662], for which the IC50 under setting [1] lay in the range of 10 to 100 nM.

Consider `C[C@H]1CCCCN1C(=O)Cc1cn(CCCC(F)(F)F)c2nc(-c3ccc(Cl)cc3)cn2c1=O` [Compound 867], for which the IC50 under setting [2] lay in the range of 10 to 100 nM.

As for `NC(=O)C1CCN(C(=O)Cc2cn(CCCC(F)(F)F)c3nc(-c4ccc(Cl)cc4)cn3c2=O)CC1` [Compound 837], the IC50 under setting [2] is greater than 1000 nM.

On to `O=C(O)[C@H](Cc1ccccc1)NC(=O)[C@@H]1C[C@@H](O)CN1c1cc(=O)n2cc(-c3ccc(Cl)cc3)nc2n1Cc1ccccc1` [Compound 749], for which the IC50 under setting [1] was less than 10 nM.

In the case of `CCCCCn1c(N2CC3CC3C2)cc(=O)n2cc(-c3ccc(Cl)cc3)nc12` (stereo not shown) [Compound 810], under setting [2], the IC50 was in the range of 100 to 1000 nM.

Regarding `CCCCCn1c(-c2ccc(C(C)=O)cc2)cc(=O)n2cc(-c3ccc(Cl)cc3)nc12` [Compound 391], the IC50 under setting [1] was 10 to 100 nM.

`CCCCCn1c(-c2ccc(C(=O)NCc3ccc(S(N)(=O)=O)cc3)cc2)cc(=O)n2cc(-c3ccc(Cl)cc3)nc12` [Compound 521]: the IC50 under setting [1] was 10 to 100 nM.

In the case of `CCCCCn1c(-c2ccc(NS(C)(=O)=O)cc2)cc(=O)n2cc(-c3ccc(Cl)cc3)nc12` [Compound 401], the IC50 under setting [1] was in the range of 10 to 100 nM.

On to `CCCCCn1c(N2CCC[C@H]2C(=O)O)cc(=O)n2cc(-c3ccc(Cl)cc3)nc12` [Compound 334], for which the IC50 under setting [1] was greater than 1000 nM.

Take `CCOC(=O)c1cccc(Cc2cn(CCCCC#N)c3nc(-c4ccc(Cl)cc4)cn3c2=O)c1` [Compound 821]: under setting [2], the IC50 fell in the range of 100 to 1000 nM.

Consider `CC1CCCCN1C(=O)Cc1cn(CCCC(F)(F)F)c2nc(-c3ccc(Cl)cc3)cn2c1=O` (stereo not shown) [Compound 836], for which, under setting [2], the IC50 was 10 to 100 nM.

`C[C@H](NC(=O)[C@@H]1CCCN1c1cc(=O)n2cc(-c3ccc(Cl)cc3)nc2n1Cc1ccccc1)C(=O)O` [Compound 748]: under setting [1], the IC50 is less than 10 nM.

Consider `CCCCCn1c(N2CCCC(C)C2)cc(=O)n2cc(-c3ccc(Cl)cc3)nc12` (stereo not shown) [Compound 300], for which the IC50 under setting [1] lay in the range of 100 to 1000 nM.

For `CCCCCn1c(-c2ccc3ncsc3c2)cc(=O)n2cc(-c3ccc(Cl)cc3)nc12` [Compound 450], the IC50 under setting [1] was in the range of 10 to 100 nM.

As for `CC(C)(C)[C@H](NC(=O)[C@@H]1C[C@@H](O)CN1c1cc(=O)n2cc(-c3ccc(Cl)cc3)nc2n1Cc1ccccc1)C(=O)O` [Compound 752], the IC50 under setting [1] is less than 10 nM.

Turning to `CCCCCn1c(OC[C@H]2CCCN2C(=O)OC(C)(C)C)cc(=O)n2cc(-c3ccc(Cl)cc3)nc12` [Compound 555], the IC50 under setting [1] lay in the range of 10 to 100 nM.

`CCn1c(N2CCC[C@H]2C(=O)N[C@@H](Cc2ccccc2)C(=O)O)cc(=O)n2cc(-c3ccc(Cl)cc3)nc12` [Compound 755]: the IC50 under setting [1] fell in the range of 100 to 1000 nM.

For `CCCCCn1c(N(CCC)C(C)=O)cc(=O)n2cc(-c3ccc(Cl)cc3)nc12` [Compound 560], the IC50 under setting [1] fell in the range of 10 to 100 nM.

For the molecule `CCCCCn1c(N2C[C@H](F)C[C@H]2C(=O)NCCC(=O)O)cc(=O)n2cc(-c3ccc(Cl)cc3)nc12` [Compound 579], the IC50 under setting [1] was 10 to 100 nM.

In the case of `CCCCCn1c(N2CCC[C@H]2C(=O)N[C@@H](C)C(=O)OC)cc(=O)n2cc(-c3ccc(Cl)cc3)nc12` [Compound 690], the IC50 under setting [1] is 10 to 100 nM.

As to `CCCCCn1c(OC2CN(C(=O)CN3CCOCC3)C2)cc(=O)n2cc(-c3ccc(Cl)cc3)nc12` [Compound 543], the IC50 under setting [1] lay within 10 to 100 nM.

Consider `CCCCCn1c(-c2ccc(C(=O)NCC(=O)N(C)C)cc2)cc(=O)n2cc(-c3ccc(Cl)cc3)nc12` [Compound 496], for which, under setting [1], the IC50 was 10 to 100 nM.

`O=C(Cc1cn(CCCC(F)(F)F)c2nc(-c3ccc(Cl)cc3)cn2c1=O)N1CCN(CCO)CC1` [Compound 853]: the IC50 under setting [2] is greater than 1000 nM.

With `CCCCCn1c(N2CCN(C(=O)OC(C)(C)C)C[C@H]2C(=O)NCCC(=O)O)cc(=O)n2cc(-c3ccc(Cl)cc3)nc12` [Compound 620], the IC50 under setting [1] was less than 10 nM.

In the case of `CCCCCn1c(-c2ccc(OC)nc2)cc(=O)n2cc(-c3ccc(Cl)cc3)nc12` [Compound 456], the IC50 under setting [1] was 10 to 100 nM.

On to `CCCCCn1c(N2CCNC[C@@H]2C(=O)NCC(=O)O)cc(=O)n2cc(-c3ccc(Cl)cc3)nc12` [Compound 666], for which, under setting [1], the IC50 was 10 to 100 nM.

`CCCCCn1c(N2CCC[C@H]2C(=O)N2CCNC(=O)CC2)cc(=O)n2cc(-c3ccc(Cl)cc3)nc12` [Compound 698]: the IC50 under setting [1] lay within 10 to 100 nM.

As to `CCCCCn1c(NCC(=O)NCC(=O)O)cc(=O)n2cc(-c3ccc(Cl)cc3)nc12` [Compound 603], under setting [1], the IC50 was 100 to 1000 nM.

Consider `CCCCCn1c(N2CCCC(F)(F)C2)cc(=O)n2cc(-c3ccc(Cl)cc3)nc12` [Compound 321], for which, under setting [1], the IC50 is 100 to 1000 nM.

In the case of `CCCCCn1c(N2CCN(C(=O)OC(C)(C)C)CC2)cc(=O)n2cc(-c3ccc(Cl)cc3)nc12` [Compound 682], the IC50 under setting [1] lay in the range of 100 to 1000 nM.

On to `CCCCCn1c(-c2ccc(NS(=O)(=O)N(C)C)cc2)cc(=O)n2cc(-c3ccc(Cl)cc3)nc12` [Compound 438], for which the IC50 under setting [1] is 10 to 100 nM.

Regarding `CCCCCn1c(N2CCC[C@H]2C(=O)NCCCCN(C)C)cc(=O)n2cc(-c3ccc(Cl)cc3)nc12` [Compound 656], the IC50 under setting [1] is 100 to 1000 nM.

On to `CCCCCn1c(N(Cc2ccc(C(=O)O)cc2)C(C)=O)cc(=O)n2cc(-c3ccc(Cl)cc3)nc12` [Compound 569], for which the IC50 under setting [1] was less than 10 nM.

Take `CCCCCn1c(-c2ccc(C(=O)N3CCCC3)cc2)cc(=O)n2cc(-c3ccc(Cl)cc3)nc12` [Compound 406]: under setting [1], the IC50 was in the range of 100 to 1000 nM.

Take `CCCCCn1c(-c2ccc(C(=O)N(CCO)CCO)cc2)cc(=O)n2cc(-c3ccc(Cl)cc3)nc12` [Compound 467]: the IC50 under setting [1] lay within 10 to 100 nM.

With `CCCCCn1c(N2C[C@H](F)C[C@H]2C(=O)O)cc(=O)n2cc(-c3ccc(Cl)cc3)nc12` [Compound 587], the IC50 under setting [1] was greater than 1000 nM.

`CCCCCn1c(-c2ccc(C(=O)NCCC#N)cc2)cc(=O)n2cc(-c3ccc(Cl)cc3)nc12` [Compound 465]: the IC50 under setting [1] fell in the range of 10 to 100 nM.

With `CCCCCn1c(-c2ccc(C(=O)NCCc3ccc(S(C)(=O)=O)cc3)cc2)cc(=O)n2cc(-c3ccc(Cl)cc3)nc12` [Compound 512], the IC50 under setting [1] is less than 10 nM.

Consider `CCCCCn1c(N2CCC[C@H]2C(=O)NC(C)(C)C(=O)OC)cc(=O)n2cc(-c3ccc(Cl)cc3)nc12` [Compound 689], for which the IC50 under setting [1] is less than 10 nM.

`CCCCCn1c(N2CCC[C@H]2C(=O)N(C)CC(=O)OC)cc(=O)n2cc(-c3ccc(Cl)cc3)nc12` [Compound 683]: under setting [1], the IC50 was in the range of 10 to 100 nM.

In the case of `O=c1cc(Cl)[nH]c2nc([C@H]3CC[C@H](C(F)(F)F)CC3)cn12` [Compound 135, 7-chloro-2-((1r,4r)-4-(trifluoromethyl)cyclohexyl)imidazo[1,2-a]pyrimidin-5(8H)-one], the IC50 under setting [1] is greater than 1000 nM.

Consider `CCCCCn1c(N2CCC[C@H]2C(=O)NCc2nn[nH]n2)cc(=O)n2cc(-c3ccc(Cl)cc3)nc12` [Compound 795], for which, under setting [2], the IC50 is less than 10 nM.

Turning to `CCCCCn1c(N2CCC[C@H]2CC(=O)NCC(=O)O)cc(=O)n2cc(-c3ccc(Cl)cc3)nc12` [Compound 628], under setting [1], the IC50 was less than 10 nM.

Regarding `CCCCCn1c(N2CCC[C@H]2C(=O)N[C@@H](CC)C(=O)O)cc(=O)n2cc(-c3ccc(Cl)cc3)nc12` [Compound 729], under setting [1], the IC50 is less than 10 nM.
